Data published in ChEMBL document CHEMBL3872282, “Dithiocarbamates effectively inhibit the β-carbonic anhydrase from the dandruff-producing fungus Malassezia globosa” (Bioorg Med Chem, 2017).
pKi: −log10 of the molar value.

Experiment: Inhibition of Malassezia globosa beta-carbonic anhydrase preincubated for 15 mins prior to testing by phenol red-based stopped-flow CO2 hydration assay

SMILES | pKi
OCCCCNC(=S)S | 5.21
NS(=O)(=O)c1ccc(CCNC(=S)S)cc1 | 6.04
S=C(S)N1CCCCC1 | 6.11
S=C(S)NCCc1ccccc1 | 5.33
S=C(S)NC1CN2CCC1CC2 (racemic) | 6.19
S=C(S)N[C@H]1CN2CCC1CC2 | 6.31
OCCCNC(=S)S | 5.50
S=C(S)N[C@@H]1CN2CCC1CC2 | 6.14
OCCCCCNC(=S)S | 6.42
CN(C)CCNC(=S)S | 5.53
CC1COCCN1C(=S)S (configuration not stated) | 6.18
CC(=O)Nc1nnc(S(N)(=O)=O)s1 [ACETAZOLAMIDE] | 4.13

Continued, values first:

pKi | SMILES
6.10 | O=C(CN1CCN(C(=S)S)CC1)NC1CCCCC1
6.14 | O=C(O)C1CCCN(C(=S)S)C1 (configuration not stated)
5.32 | O=C(O)C1COCCN1C(=S)S (configuration not stated)
6.25 | O=C(O)C1CCN(C(=S)S)CC1
6.24 | O=C(O)[C@@H]1CCCN(C(=S)S)C1
6.03 | O=C(O)[C@H]1CCCN(C(=S)S)C1
5.62 | O=C(O)C1CCCCN1C(=S)S (configuration not stated)
6.19 | CC(C)(C)OC(=O)NC1CCCN(C(=S)S)C1 (configuration not stated)
6.17 | OC1CCCN(C(=S)S)C1 (configuration not stated)
6.05 | CC(=O)NC1CCCN(C(=S)S)C1 (configuration not stated)
